Results reported in patent US20220298141A1, “ENZYME INHIBITORS” (KALVISTA PHARMACEUTICALS LIMITED, priority 2019, published 2022).

Tests used:
Human Factor XIIa = biological target: T1, Human Factor XIIa (Homo sapiens, UniProt P00748); test: Determination of Factor XIIa inhibitory activity in vitro (fluorogenic substrate H-DPro-Phe-Arg-AFC); format: biochemical; conditions: Human Factor XIIa (Enzyme Research Laboratories), 25° C., read-out: Human FXIIa IC50
T1 construct: purchased Enzyme Research Laboratories
T1 sequence (P00748 373-615 limits assumed): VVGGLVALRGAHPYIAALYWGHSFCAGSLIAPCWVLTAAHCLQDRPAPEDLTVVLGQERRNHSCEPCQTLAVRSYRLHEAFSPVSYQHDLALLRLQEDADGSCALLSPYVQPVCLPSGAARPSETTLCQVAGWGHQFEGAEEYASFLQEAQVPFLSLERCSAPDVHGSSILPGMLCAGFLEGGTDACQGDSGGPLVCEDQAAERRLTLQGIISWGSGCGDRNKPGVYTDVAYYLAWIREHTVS
T1 sequence (P00748 20-372 partner limits assumed): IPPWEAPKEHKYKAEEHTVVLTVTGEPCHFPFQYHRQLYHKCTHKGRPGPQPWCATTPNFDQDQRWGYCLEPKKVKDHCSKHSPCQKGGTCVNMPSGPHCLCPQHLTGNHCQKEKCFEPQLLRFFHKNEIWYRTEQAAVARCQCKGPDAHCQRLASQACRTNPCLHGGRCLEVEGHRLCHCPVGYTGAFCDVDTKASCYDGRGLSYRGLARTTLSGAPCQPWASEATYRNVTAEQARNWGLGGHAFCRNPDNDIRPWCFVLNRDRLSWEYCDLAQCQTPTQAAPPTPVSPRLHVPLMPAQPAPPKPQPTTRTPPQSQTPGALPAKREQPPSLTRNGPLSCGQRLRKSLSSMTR
How it was run: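 In vitro inhibition of human Factor XIIa (sourced from Enzyme Research Laboratories) was measured by incubating the enzyme at 25° C. with the fluorogenic substrate H-DPro-Phe-Arg-AFC across a range of test compound concentrations. The initial reaction rate, taken as residual enzyme activity, was followed by the […], and IC50 values were calculated.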

Human FXIa = biological target: T2, Human FXIa (Homo sapiens, UniProt P03951); test: Determination of FXIa inhibitory activity in vitro (fluorogenic substrate Z-Gly-Pro-Arg-AFC); format: biochemical; conditions: Selectivity, Human FXIa (Enzyme Research Laboratories), 25° C.
T2 construct: purchased Enzyme Research Laboratories
T2 sequence (P03951 388-625 limits assumed): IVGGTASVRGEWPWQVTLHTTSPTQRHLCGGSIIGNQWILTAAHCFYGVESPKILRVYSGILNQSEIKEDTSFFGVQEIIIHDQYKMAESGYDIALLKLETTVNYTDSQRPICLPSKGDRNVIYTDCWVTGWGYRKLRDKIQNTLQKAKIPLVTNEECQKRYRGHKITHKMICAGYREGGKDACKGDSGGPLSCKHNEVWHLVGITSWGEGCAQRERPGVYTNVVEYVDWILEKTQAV
T2 sequence (P03951 19-387 partner limits assumed): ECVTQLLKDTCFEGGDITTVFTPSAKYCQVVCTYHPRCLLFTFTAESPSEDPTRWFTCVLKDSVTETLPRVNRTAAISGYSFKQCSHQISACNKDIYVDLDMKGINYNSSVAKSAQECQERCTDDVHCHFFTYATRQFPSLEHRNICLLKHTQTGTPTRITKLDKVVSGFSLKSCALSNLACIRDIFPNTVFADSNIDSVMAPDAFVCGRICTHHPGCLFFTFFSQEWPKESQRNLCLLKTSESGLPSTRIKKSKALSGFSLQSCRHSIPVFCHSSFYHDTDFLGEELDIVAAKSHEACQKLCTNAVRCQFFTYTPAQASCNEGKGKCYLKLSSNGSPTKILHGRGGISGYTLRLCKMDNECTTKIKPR

| IC50 (Human Factor XIIa) [µM] | IC50 (Human FXIa) [µM] | Structure (SMILES) |
| --- | --- | --- |
| 10 to 40 | > 40 | Nc1nccc2cc(CNC(=O)c3nccnc3Nc3ccc(N4CCNCC4)cc3)ccc12 [Example 4.22] |
| 0.3 to 1 | > 40 | CN1CCc2c(cccc2Nc2nccnc2C(=O)NCc2ccc3c(N)nccc3c2)C1 [Example 4.23] |
| 0.3 to 1 | > 40 | CN1CCc2cc(Nc3nccnc3C(=O)NCc3ccc4c(N)nccc4c3)ccc2C1 [Example 4.24] |
| 0.3 to 1 | > 40 | Nc1nccc2cc(CNC(=O)c3nccnc3NCC3CCN(CCO)CC3)ccc12 [Example 4.25] |
| 10 to 40 | > 40 | Nc1nccc2cc(CNC(=O)c3cnc(N4CCN(c5ccncc5)CC4)c(Cl)c3)ccc12 [Example 8.08] |
| 1 to 3 | > 40 | CN(CC1CCN(c2ccncc2)CC1)c1ncc(C(=O)NCc2ccc3c(N)nccc3c2)cc1Cl [Example 8.09, N-[(1-amino-6-isoquinolyl)methyl]-5-chloro-6-[methyl-[[1-(4-pyridyl)-4-piperidyl]methyl]amino]pyridine-3-carboxamide] |
| 10 to 40 | > 40 | N#Cc1cccc(CNc2ncc(C(=O)NCc3ccc4c(N)nccc4c3)cc2Cl)c1 [Example 11.28] |
| 10 to 40 | > 40 | COCCNc1ncc(C(=O)NCc2ccc3c(N)nccc3c2)cc1Cl [Example 11.29] |
| 10 to 40 | > 40 | CN(C)CCNc1ncc(C(=O)NCc2ccc3c(N)nccc3c2)cc1Cl [Example 11.30] |
| 10 to 40 | > 40 | Nc1nccc2cc(CNC(=O)c3cnc(NCCn4cncn4)c(Cl)c3)ccc12 [Example 11.31] |
| 10 to 40 | > 40 | CN1C(C)(C)CC(Nc2ncc(C(=O)NCc3ccc4c(N)nccc4c3)cc2Cl)CC1(C)C [Example 11.32] |
| 10 to 40 | > 40 | CN1CCC(Nc2ncc(C(=O)NCc3ccc4c(N)nccc4c3)cc2Cl)CC1 [Example 11.33] |
| 10 to 40 | > 40 | Nc1nccc2cc(CNC(=O)c3cnc(NC4CCNCC4)c(Cl)c3)ccc12 [Example 11.34] |
| 10 to 40 | > 40 | CN1CCC(Nc2ncc(C(=O)NCc3ccc4c(N)nccc4c3)cc2Cl)CC1=O (stereo not drawn) [Example 11.35] |
| 3 to 10 | > 40 | CC(C)N1CCC(Nc2ncc(C(=O)NCc3ccc4c(N)nccc4c3)cc2Cl)CC1 [Example 11.36] |
| 10 to 40 | > 40 | CC(C)CN1CCC(Nc2ncc(C(=O)NCc3ccc4c(N)nccc4c3)cc2Cl)CC1 [Example 11.37] |
| 10 to 40 | > 40 | CS(=O)(=O)N1CCC(Nc2ncc(C(=O)NCc3ccc4c(N)nccc4c3)cc2Cl)CC1 [Example 11.38] |
| 10 to 40 | > 40 | CC(=O)N1CCC(Nc2ncc(C(=O)NCc3ccc4c(N)nccc4c3)cc2Cl)CC1 [Example 11.39] |
| 10 to 40 | > 40 | Nc1nccc2cc(CNC(=O)c3cnc(NC4CCN(c5nccs5)CC4)c(Cl)c3)ccc12 [Example 11.40] |
| 10 to 40 | > 40 | COCCN1CCC(Nc2ncc(C(=O)NCc3ccc4c(N)nccc4c3)cc2Cl)CC1 [Example 11.41] |
| 10 to 40 | > 40 | Nc1nccc2cc(CNC(=O)c3cnc(NC4CCN(C5CC5)CC4)c(Cl)c3)ccc12 [Example 11.42] |

| IC50 (Human Factor XIIa) [µM] | IC50 (Human FXIa) [µM] | Structure (SMILES) |
| --- | --- | --- |
| 3 to 10 | > 40 | Nc1nccc2cc(CNC(=O)c3cnc(OCCN4CCCCC4)c(Cl)c3)ccc12 [Example 13.26, N-((1-aminoisoquinolin-6-yl)methyl)-5-chloro-6-(2-(piperidin-1-yl)ethoxy)nicotinamide] |
| 3 to 10 | > 40 | Nc1nccc2cc(CNC(=O)c3cnc(OCCCN4CCCCC4)c(Cl)c3)ccc12 [Example 13.27] |
| 10 to 40 | > 40 | Nc1nccc2cc(CNC(=O)c3cc(Cl)cnc3N3CCN(c4ncccn4)CC3)ccc12 [Example 16.04] |
| 3 to 10 | > 40 | CC(=O)NCCN1CCN(c2ncc(Cl)cc2C(=O)NCc2ccc3c(N)nccc3c2)CC1 [Example 16.05] |
| 10 to 40 | 21 | Nc1nccc2cc(CNC(=O)c3ccc(CN4CCN(c5ccncc5)CC4)c(Cl)c3)ccc12 [Example 29.07, N-((1-aminoisoquinolin-6-yl)methyl)-3-chloro-4-((4-(pyridin-4-yl)piperazin-1-yl)methyl)benzamide] |
| 10 to 40 | > 40 | Nc1nccc2cc(CNC(=O)c3cnc(CN4CCN(c5ccncc5)CC4)c(Cl)c3)ccc12 [Example 29.08, N-[(1-amino-6-isoquinolyl)methyl]-5-chloro-6-[[4-(4-pyridyl)piperazin-1-yl]methyl]pyridine-3-carboxamide] |
| 3 to 10 | > 40 | CN1CCC(CNc2ncc(Cl)cc2C(=O)NCc2c(Cl)cccc2-n2cnnn2)CC1 [Example 33.01, 5-Chloro-N-{[2-chloro-6-(1,2,3,4-tetrazol-1-yl)phenyl]methyl}-2-{[(1-methylpiperidin-4-yl)methyl]amino}pyridine-3-carboxamide] |
| 10 to 40 | 20 | CN1CCC(CNc2nccnc2C(=O)Nc2ccc3c(c2)C(=O)NC3)CC1 [Example 33.02] |
| 10 to 40 | 20 | CN1CCC(CNc2nccnc2C(=O)Nc2ccc3nc[nH]c(=O)c3c2)CC1 [Example 33.03] |
| 10 to 40 | > 40 | CN1CCC(CNc2nccnc2C(=O)Nc2ccc3ccnc(N)c3c2)CC1 [Example 33.04] |
| 3 to 10 | 33.5 | CCOC(=O)c1cn(-c2ccc(OC)c(F)c2CNC(=O)c2nccnc2NCC2CCN(C)CC2)nn1 [Example 33.05] |
| 10 to 40 | 20 | CN1CCC(CNc2nccnc2C(=O)NCCc2cnc[nH]2)CC1 [Example 33.06] |
| 10 to 40 | > 40 | CN1CCC(CNc2nccnc2C(=O)Nc2ccc3c(N)nccc3c2)CC1 [Example 33.07] |
| 10 to 40 | > 40 | CN1CCC(CNc2nccnc2C(=O)Nc2ccc3nccnc3c2)CC1 [Example 33.08] |
| 10 to 40 | 33.5 | COc1ccc(-n2cc(C(=O)O)nn2)c(CNC(=O)c2nccnc2NCC2CCN(C)CC2)c1F [Example 33.09, 1-(3-Fluoro-4-methoxy-2-{[(3-{[(1-methylpiperidin-4-yl)methyl]amino}pyrazin-2-yl)formamido]methyl}phenyl)-1,2,3-triazole-4-carboxylic acid] |
| 10 to 40 | 20 | Cc1nc2ccc(NC(=O)c3nccnc3NCC3CCN(C)CC3)cc2o1 [Example 33.10] |
| 10 to 40 | > 40 | CN1CCC(CNc2nccnc2C(=O)Nc2ccc(-c3n[nH]c(=O)[nH]3)cc2)CC1 [Example 33.11] |
| 1 to 3 | > 40 | CN1CCC(CNc2nccnc2C(=O)Nc2cccc3c(N)nccc23)CC1 [Example 33.12, N-(1-aminoisoquinolin-5-yl)-3-(((1-methylpiperidin-4-yl)methyl)amino)pyrazine-2-carboxamide] |
| 3 to 10 | 39.8 | CN1CCC(CNc2nccnc2C(=O)N[C@@H]2CCc3c2ccnc3N)CC1 [Example 33.13] |
| 10 to 40 | > 40 | CN1CCC(CNc2nccnc2C(=O)Nc2cnc3[nH]cc(Cl)c3c2)CC1 [Example 33.14] |
| 10 to 40 | > 40 | CN1CCC(CNc2nccnc2C(=O)Nc2cccc3[nH]cc(Cl)c23)CC1 [Example 33.15] |
